Experimental data as given in ChEMBL document CHEMBL1201862, “PubChem BioAssay data set” (2004).
The source made the active and inactive calls. Cut-off read from the data, not from the text of the source, for most assays here: actives have a measured EC50 and inactives only a lower limit.

What was measured:
HT-1080 = assay: cytotoxicity in HT1080 fibrosarcoma cells, cell-based, fluorescence readout (AID 620); assay type: functional; conditions: Homo sapiens
[1] = Luminescence Cell-Based Dose Response HTS to Identify Inhibitors of 5'UTR Stem-Loop Driven Prion Protein mRNA Translation in H4 Neuroglioblastoma Cells. [Related pubchem assays: 1827 (Project Summary), 1813 (Primary HTS)]; assay type: functional
[2] = Luminescence Cell-Based Dose Confirmation HTS to Identify Inhibitors of Platelet Dense Granule Release. [Related pubchem assays: 1663 (Primary HTS), 1678 (Summary of Project)]; assay type: functional
[3] = inhibitors of SNCA 5'UTR-driven reporter translation, confirmation, H4 neuroglioma cells, luminescence (AID 1988); assay type: functional, cell-based
[4] = molecular target: T1, Luciferin 4-monooxygenase (Photinus pyralis, UniProt P08659); assay: firefly luciferase enzyme inhibitors, dose response, biochemical, luminescence (AID 1891)
[5] = molecular target: T1, Luciferin 4-monooxygenase; assay: Counter Screen for Luciferase-based Assay Positives. [Related pubchem assays: 620, 618, 411 ]
[6] = molecular target: Voltage-dependent T-type calcium channel subunit alpha-1H (Homo sapiens, UniProt O95180); assay type: functional;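 note: channel activity triggered by adding a high calcium stimulation buffer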
[7] = cytotoxicity in HPDE-C7 cells, cell-based, fluorescence, HTS (AID 430); assay type: functional; conditions: Homo sapiens
[8] = cytotoxicity in KRAS-transformed pancreatic duct cells, primary screen, cell-based, fluorescence, HTS (AID 431); assay type: functional; conditions: Homo sapiens;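 note: cell line used: HPDE-C7K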
[9] = molecular target: Mitogen-activated protein kinase 10 (Homo sapiens, UniProt P53779); assay: Dose response biochemical screening assay for inhibitors of c-Jun N-Terminal Kinase 3 (JNK3). [Related pubchem assays: 746 ]
[10] = growth suppression of PTEN-null colon cells, dose response, cell-based, HCT116 PTEN knockout (AID 1047); assay type: functional;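 note: HCT116 colon tumor cells with PTEN knocked out; cells exposed to compound for 60 hours before readout; potency for loss of cell viability measured by luminescence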
[11] = molecular target: T2, Calpain-2 catalytic subunit (Sus scrofa, UniProt P43367); assay: pig calpain II inhibitor potency, dose response, biochemical, fluorogenic peptide substrate (AID 1420); assay type: functional
T2 sequence (P43367 whole entry): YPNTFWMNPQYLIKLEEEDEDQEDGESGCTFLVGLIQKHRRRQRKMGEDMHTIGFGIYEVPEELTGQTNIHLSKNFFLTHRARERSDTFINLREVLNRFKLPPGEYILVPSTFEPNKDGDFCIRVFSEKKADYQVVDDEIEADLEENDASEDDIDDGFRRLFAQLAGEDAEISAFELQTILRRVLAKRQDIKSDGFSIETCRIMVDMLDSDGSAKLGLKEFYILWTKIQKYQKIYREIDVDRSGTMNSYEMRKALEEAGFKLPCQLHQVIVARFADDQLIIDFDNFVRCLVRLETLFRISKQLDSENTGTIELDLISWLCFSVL

[12] = A Cell Based Secondary Assay To Explore Cytotoxicity of Compounds that Sensitize Mycobacterium Tuberculosis to Beta-Lactam Antibiotics.; assay type: functional
[13] = growth suppression of beta-catenin-knockout colon cells, dose response, cell-based, HCT116, human colon tumor (AID 1045); assay type: functional;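 note: HCT116 colon tumor cells with beta catenin knocked out; cells exposed to compound for 60 hours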
[14] = inhibitors of firefly luciferase expression or activity, dose response, H4 neuroglioma cells, luminescence (AID 1990); assay type: functional, cell-based
[15] = luciferase reporter signal reduction – luminescence, H4-C neuroglioblastoma cells, dose response (AID 2458); assay type: functional, cell-based;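 note: H4 neuroglioblastoma cells stably carrying a luciferase reporter gene fusion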
[16] = inhibitors of SNCA 5'UTR-driven translation, confirmation, luminescence, H4 neuroglioblastoma cells, dose confirmation (AID 2454); assay type: functional, cell-based;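 note: H4 neuroglioblastoma cells carrying an alpha-synuclein 5'UTR luciferase reporter; potency for inhibition of the luciferase signal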
cells = assay type: functional, cell-based
Nonstructural protein 1 = Nonstructural protein 1 (Influenza A virus, UniProt Q194T2); assay type: functional, Influenza A virus (A/California/07/2009(H1N1))
Large T antigen = Large T antigen (Simian virus 40, UniProt P03070); assay type: functional, Betapolyomavirus macacae;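 note: Confirmatory-stage PubChem screen for compounds that inhibit SV40 T antigen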
[17] = cytotoxicity in HEK-293T cells, dose response, cytotoxicity control for TCR NF-kB inhibitor project, luminescence, T-cell screen hits (AID 489026); assay type: functional, cell-based;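 note: cells exposed to compound about 14 hours before the viability readout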
Estrogen receptor beta = Estrogen receptor beta (Homo sapiens, UniProt Q92731);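 note: recombinant ER-beta bound to coactivator SRC1 peptide in presence of estradiol agonist; inhibitors block coactivator peptide binding and lower the FRET signal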
Chain of Estrogen receptor beta (Q92731 whole entry): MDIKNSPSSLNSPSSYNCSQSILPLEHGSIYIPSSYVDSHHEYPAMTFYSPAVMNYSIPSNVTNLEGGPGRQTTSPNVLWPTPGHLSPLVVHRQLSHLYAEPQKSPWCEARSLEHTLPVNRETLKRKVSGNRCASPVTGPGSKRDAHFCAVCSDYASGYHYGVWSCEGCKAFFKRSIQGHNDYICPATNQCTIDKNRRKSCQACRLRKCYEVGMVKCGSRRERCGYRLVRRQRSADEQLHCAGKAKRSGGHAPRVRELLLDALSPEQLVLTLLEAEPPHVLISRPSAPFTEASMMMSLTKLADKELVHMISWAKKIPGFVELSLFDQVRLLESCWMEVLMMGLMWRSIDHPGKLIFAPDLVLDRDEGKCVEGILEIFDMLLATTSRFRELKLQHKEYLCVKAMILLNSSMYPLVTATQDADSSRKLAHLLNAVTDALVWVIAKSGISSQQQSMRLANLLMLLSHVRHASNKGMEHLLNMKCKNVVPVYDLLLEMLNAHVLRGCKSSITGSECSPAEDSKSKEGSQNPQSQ

Chain of Mitogen-activated protein kinase 10 (P53779 whole entry): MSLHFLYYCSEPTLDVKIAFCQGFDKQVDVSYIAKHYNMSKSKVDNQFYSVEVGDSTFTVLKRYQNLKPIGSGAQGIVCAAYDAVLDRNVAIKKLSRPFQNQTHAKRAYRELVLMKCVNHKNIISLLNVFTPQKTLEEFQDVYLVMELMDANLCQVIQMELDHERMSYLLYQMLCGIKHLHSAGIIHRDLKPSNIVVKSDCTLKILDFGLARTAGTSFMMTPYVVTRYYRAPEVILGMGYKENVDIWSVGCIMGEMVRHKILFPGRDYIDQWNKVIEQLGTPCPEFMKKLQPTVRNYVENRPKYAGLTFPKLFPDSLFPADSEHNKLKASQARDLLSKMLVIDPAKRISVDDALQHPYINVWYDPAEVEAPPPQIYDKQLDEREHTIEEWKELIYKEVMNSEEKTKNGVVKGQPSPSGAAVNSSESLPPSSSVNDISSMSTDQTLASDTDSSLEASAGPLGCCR
T1 sequence (P08659 whole entry): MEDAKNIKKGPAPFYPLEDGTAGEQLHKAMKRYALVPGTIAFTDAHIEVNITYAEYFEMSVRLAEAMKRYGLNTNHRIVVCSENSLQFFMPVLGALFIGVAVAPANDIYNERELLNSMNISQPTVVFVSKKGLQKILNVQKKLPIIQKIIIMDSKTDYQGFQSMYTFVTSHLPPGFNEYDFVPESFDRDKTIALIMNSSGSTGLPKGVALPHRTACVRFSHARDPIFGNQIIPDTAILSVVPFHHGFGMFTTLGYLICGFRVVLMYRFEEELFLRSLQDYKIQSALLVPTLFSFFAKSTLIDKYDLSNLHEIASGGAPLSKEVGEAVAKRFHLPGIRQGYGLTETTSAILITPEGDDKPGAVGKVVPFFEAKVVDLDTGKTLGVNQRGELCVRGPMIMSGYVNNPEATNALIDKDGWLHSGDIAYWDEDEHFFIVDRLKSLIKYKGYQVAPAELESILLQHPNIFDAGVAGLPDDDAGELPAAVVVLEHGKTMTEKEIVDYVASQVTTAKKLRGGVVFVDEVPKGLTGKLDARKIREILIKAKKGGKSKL
Chain of Large T antigen (P03070 whole entry): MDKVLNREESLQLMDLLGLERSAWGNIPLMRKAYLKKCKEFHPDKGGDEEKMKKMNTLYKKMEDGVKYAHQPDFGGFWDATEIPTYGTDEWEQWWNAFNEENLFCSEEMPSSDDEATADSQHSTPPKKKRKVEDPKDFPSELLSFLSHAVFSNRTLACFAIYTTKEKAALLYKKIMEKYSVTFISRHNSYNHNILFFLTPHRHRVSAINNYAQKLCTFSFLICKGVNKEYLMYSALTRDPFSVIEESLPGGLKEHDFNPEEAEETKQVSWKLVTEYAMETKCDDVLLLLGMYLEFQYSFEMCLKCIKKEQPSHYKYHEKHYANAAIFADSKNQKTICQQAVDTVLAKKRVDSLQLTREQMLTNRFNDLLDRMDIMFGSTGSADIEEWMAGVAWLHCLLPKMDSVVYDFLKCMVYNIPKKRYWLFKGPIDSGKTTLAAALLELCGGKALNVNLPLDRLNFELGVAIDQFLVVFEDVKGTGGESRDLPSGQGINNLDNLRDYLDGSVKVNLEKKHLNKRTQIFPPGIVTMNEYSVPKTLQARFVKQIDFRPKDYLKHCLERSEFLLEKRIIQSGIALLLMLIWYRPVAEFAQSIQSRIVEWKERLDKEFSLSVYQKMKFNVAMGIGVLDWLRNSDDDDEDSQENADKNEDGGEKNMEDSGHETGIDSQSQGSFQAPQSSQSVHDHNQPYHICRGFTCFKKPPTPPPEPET
Chain of Nonstructural protein 1 (Q194T2 whole entry): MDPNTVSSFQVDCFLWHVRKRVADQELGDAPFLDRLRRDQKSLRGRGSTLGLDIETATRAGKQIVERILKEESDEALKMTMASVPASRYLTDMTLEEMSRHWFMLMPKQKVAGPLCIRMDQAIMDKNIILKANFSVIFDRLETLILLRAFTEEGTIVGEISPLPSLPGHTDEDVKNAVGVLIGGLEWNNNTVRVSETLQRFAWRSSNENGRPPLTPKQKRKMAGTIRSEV
Chain of Voltage-dependent T-type calcium channel subunit alpha-1H (O95180 whole entry): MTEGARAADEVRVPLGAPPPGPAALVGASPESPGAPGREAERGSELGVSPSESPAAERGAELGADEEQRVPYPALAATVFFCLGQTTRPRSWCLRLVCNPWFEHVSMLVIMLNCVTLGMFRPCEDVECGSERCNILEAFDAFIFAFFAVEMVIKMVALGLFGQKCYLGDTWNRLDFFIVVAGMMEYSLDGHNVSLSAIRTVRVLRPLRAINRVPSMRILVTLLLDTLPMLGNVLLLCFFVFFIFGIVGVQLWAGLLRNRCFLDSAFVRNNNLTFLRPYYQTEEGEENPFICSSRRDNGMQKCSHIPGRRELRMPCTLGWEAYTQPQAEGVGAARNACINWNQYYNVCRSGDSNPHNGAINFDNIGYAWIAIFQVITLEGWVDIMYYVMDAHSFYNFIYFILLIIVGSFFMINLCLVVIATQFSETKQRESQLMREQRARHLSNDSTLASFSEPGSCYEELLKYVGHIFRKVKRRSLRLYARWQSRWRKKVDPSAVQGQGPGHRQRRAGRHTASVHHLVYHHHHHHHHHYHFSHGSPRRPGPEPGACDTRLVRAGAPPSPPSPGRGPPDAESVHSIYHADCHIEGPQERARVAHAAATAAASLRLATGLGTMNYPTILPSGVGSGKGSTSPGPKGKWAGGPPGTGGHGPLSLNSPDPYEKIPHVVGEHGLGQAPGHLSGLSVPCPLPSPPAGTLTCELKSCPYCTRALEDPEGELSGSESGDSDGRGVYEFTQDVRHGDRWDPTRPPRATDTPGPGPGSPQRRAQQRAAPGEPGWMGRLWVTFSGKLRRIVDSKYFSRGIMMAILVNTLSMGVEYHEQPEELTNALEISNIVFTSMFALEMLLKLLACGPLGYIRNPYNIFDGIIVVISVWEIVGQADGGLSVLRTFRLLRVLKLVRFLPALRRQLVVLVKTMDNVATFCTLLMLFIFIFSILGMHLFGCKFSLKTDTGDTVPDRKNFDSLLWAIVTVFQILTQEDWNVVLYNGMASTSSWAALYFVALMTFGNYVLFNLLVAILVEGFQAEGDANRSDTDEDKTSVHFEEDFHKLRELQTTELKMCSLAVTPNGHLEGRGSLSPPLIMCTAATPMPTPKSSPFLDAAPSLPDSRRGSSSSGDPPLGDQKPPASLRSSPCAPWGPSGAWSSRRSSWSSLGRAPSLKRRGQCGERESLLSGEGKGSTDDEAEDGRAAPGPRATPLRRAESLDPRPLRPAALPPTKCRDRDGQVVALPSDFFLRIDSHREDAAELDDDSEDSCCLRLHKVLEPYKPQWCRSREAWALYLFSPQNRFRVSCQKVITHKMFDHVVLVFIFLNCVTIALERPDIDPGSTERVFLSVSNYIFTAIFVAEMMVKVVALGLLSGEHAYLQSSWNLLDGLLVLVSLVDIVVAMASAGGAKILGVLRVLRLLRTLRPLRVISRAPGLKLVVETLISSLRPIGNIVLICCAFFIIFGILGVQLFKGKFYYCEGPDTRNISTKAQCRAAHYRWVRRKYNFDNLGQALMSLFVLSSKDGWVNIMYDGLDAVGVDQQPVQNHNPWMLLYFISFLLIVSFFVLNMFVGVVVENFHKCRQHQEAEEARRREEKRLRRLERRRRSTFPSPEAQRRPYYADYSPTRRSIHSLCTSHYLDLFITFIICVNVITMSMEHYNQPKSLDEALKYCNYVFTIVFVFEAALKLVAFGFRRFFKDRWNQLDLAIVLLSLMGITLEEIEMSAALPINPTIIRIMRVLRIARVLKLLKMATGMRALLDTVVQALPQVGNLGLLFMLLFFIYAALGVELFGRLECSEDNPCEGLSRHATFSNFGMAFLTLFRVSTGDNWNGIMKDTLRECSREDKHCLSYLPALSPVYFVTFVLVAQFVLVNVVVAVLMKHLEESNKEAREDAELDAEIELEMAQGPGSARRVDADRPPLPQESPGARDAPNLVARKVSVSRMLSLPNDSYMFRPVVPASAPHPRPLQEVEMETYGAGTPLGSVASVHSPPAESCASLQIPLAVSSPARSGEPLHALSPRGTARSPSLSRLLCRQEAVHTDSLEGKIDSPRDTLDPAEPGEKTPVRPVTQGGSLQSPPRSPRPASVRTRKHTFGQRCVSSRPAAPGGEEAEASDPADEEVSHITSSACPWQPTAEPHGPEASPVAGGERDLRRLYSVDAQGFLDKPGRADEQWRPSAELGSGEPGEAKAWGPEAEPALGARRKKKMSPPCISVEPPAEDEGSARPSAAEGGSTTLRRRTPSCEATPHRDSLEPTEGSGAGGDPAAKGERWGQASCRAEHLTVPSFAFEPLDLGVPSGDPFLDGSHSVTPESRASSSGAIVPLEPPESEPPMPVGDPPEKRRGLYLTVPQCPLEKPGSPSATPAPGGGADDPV

O=C(Nc1cccc(O)c1)c1noc2c1CCCCC2
EC50 (HT-1080): > 50 µM (not active) | EC50 [1]: > 30 µM (not active) | EC50 [2]: 3.4 µM (active) | EC50 [3]: 8.89 µM (active) | EC50 [4]: 2.87 µM (active) | EC50 [5]: > 100 µM (not active)

O=C(Nc1ncc(Br)s1)C(Cc1ccccc1)n1cccc1 (stereo not drawn)
EC50 [6]: 1.33 µM (active) | EC50 [7]: 11.9 µM (active) | EC50 [8]: 13.2 µM (active)

COc1ccc(CC(=O)Nc2nc3ccccc3s2)cc1S(=O)(=O)N1CCOCC1
IC50 [9]: 24.7 µM (not active)

O=C(Nc1ccc(OC(=O)c2ccccc2)c(-c2nc3ccccc3s2)c1)c1ccccc1
EC50 [10]: 18.2 µM (active) | IC50 [11]: 18.5 µM (not active) | CC50 [12]: > 40 µM (active) | EC50 [13]: 24.2 µM (active)

Cc1nc2ncccn2c1-c1csc(Nc2ccc(N(C)C)cc2)n1
EC50 [14]: > 120 µM (not active) | EC50 [15]: 0.108 µM (active) | EC50 [16]: 0.128 µM (active) | EC50 (cells): 0.163 µM (active) | IC50 (Nonstructural protein 1): 8.9 µM (active) | EC50 [3]: < 0.1 µM (inconclusive) | IC50 (Large T antigen): 6.91 µM (active)

CC(=O)Nc1ccc(S(=O)(=O)N2CCC(n3cnc4cc(F)ccc43)CC2)cc1
IC50 [9]: 32.2 µM (not active)

CCOc1ccccc1NC(=O)Cn1nnc(C(=O)NCc2cccs2)c1N
EC50 [14]: 0.146 µM (active) | EC50 [15]: 0.877 µM (active) | EC50 [16]: 0.685 µM (active) | EC50 (cells): 0.696 µM (active) | EC50 [1]: < 0.1 µM (active) | EC50 [3]: < 0.1 µM (active) | IC50 [17]: > 80 µM (inactive)

COc1cccc(-c2nn(C)c3sc(C(=O)N4CCN(c5ccccn5)CC4)cc23)c1
EC50 [7]: 15.2 µM (active) | EC50 [8]: 14 µM (active)

O=C(Nc1cnc2ccccn2c1=O)c1ccc(F)cc1
IC50 (Estrogen receptor beta): > 50 µM (not active)

COc1ccc(Cn2c(C)c(C)c(C#N)c2NC(=O)Nc2cccc(C)c2)cc1
IC50 (Estrogen receptor beta): > 50 µM (not active)
